Test results: patent US20230393120A1, “A HUMAN VASCULAR INJURY-ON-A-CHIP MODEL OF HEMOSTASIS” (THE TRUSTEES OF THE UNIVERSITY OF PENNSYLVANIA, priority 2020, published 2023)
Where a SMILES comes first, the peptide text is derived from it. Bridges are numbered along the chain shown (N, C = ends). [ ]: non-standard residue; d: D form. hArg = N=C(N)NCCCC[C@H](N)C(=O)O; Mpa = O=C(O)CCS

Tested on: injury-induced platelet and fibrin deposition (hemostatic plug formation), human whole blood
Experiment: Drug testing in the vascular injury-on-a-chip perfused with drug-containing whole blood
Type: cell-based
Excerpt: Human vascular injury-on-a-chip as a drug screening platform: anticoagulants and antiplatelet agents can be used for treating or preventing thrombotic events in the arterial and venous circulations. However, anticoagulants and antiplatelet agents can increase the risk of bleeding, especially when used in combination. The disclosed vascular injury-on-a-chip model provides a potential tool for evaluating these adverse effects, offering a complementary approach to animal models. Such features were tested using Hirudin and eptifibatide as model compounds representing anticoagulant and antiplatelet drugs, respectively. The disclosed subject matter was used to measure and compare the extent of injury-induced platelet and fibrin deposition when the disclosed devices were perfused with drug-containing whole blood. […] For quantitative analysis, we devised an injury closure score ranging between 0 and 2, which corresponds to fully open and fully closed, respectively. The hirudin-treated devices yielded an average score of […] the untreated control group scored 1.138. (FIG. 5E), indicating the adverse effects of Hirudin on the formation of competent hemostatic plugs.
Preparation of blood vessel-on-a-chip: Assembled devices were autoclaved for sterilization prior to cell culture. To increase the strength of interfacial adhesion between collagen gel and PDMS, dopamine hydrochloride (Sigma-Aldrich) solution (2.0 mg/mL w/v in 10 mM Tris-HCl buffer, pH 8.5) was injected into the middle compartment of the device and incubated for 2 hours at room temperature. Next, 6 mg/ml of rat-tail collagen type I containing 2.5% (v/v) lipidated tissue factor (Dade Innovin Reagent, Siemens) was introduced into the polydopamine-treated chamber and polymerized at 37° C. for 30 minutes. After gelation, HUVECs suspended in EGM-2 medium were seeded into the intravascular channel at a density of 1.6-1.8×10^6 cells/ml and allowed to settle and adhere to the surface of the collagen hydrogel by rotating the device by 90°. Following cell attachment, the device was perfused with medium to form a confluent endothelial monolayer. For TNF-a experiments, HUVECs were seeded on a tissue factor-free collagen gel and treated overnight with 1 ng/ml of TNF-a (Peprotech).
Healthy donor blood preparation: The blood was obtained via venipuncture into a syringe containing 3.8% sodium citrate (9:1) and 40 μg/ml of corn trypsin inhibitor (CTI). Right before perfusion through the device, the blood was recalcified (15 mM CaCl2) for 3 minutes. Fluorescently-labeled antibodies to detect platelets (a-CD61-568), P-selectin (a-CD62P-647), and fibrin (a-Fibrin-488) were added at a final concentration of 1 μg/ml. If inhibitors were used in the experiment, they were added in the recalcification step as well. The final concentration for eptifibatide acetate was 100 μM, and for Hirudin was 4 μg/ml.
Puncture injury and global hemostasis assessment: For precise spatial control of injury, a 30 G blunt needle was inserted between the two PM DS channel layers during device assembly and used as a sheath that guides the insertion of a microneedle. To induce puncture injury, either a 0.12 or 0.20 mm acupuncture needle was inserted into the guide needle and gently pushed towards the extravascular compartments in a controlled manner either to pierce through the endothelium and the entire thickness of the collagen hydrogel or to superficially injure the endothelial layer. Following injury, the intravascular and extravascular channels were perfused with recalcified blood and HBSS buffer (20 mM HEPES, 2 mM Ca2+), respectively using two independently controlled syringe pumps (Fusion 400, Chemyx & BS-8000 120 V, Braintree Scientific).
Fluorescently-labeled antibodies to CD61, P-selectin, and fibrin were added to the blood prior to perfusion through the microfluidic device to visualize platelet deposition, platelet activation, and fibrin accumulation. […]

Compound	contraction of the vessel wall (matrix deformation, normalized injury area over time) (eptifibatide 100 μM)	platelet activation (eptifibatide 100 μM in whole blood)	fibrin accumulation (eptifibatide 100 μM in whole blood, relative to control)	platelet accumulation (eptifibatide 100 μM in whole blood, vs control)	injury channel closure, compared with Hirudin (eptifibatide 100 μM vs Hirudin 4 μg/ml)	state of the injury channel (eptifibatide 100 μM, confocal images)	injury score (0 fully open, 1 partially closed, 2 fully closed) (eptifibatide 100 μM, final time point)	fibrin accumulation (Hirudin 4 μg/ml in whole blood, vs control)	platelet accumulation (Hirudin 4 μg/ml in whole blood, vs control without the drug)	platelet activation (Hirudin 4 μg/ml in whole blood, vs control without the drug, P-selectin MFI)	state of the injury channel openings (Hirudin 4 μg/ml, confocal images)	injury closure (injury closure score 0-2, fully open to fully closed) (Hirudin 4 μg/ml, final time point)
N=C(N)NCCCC[C@@H]1NC(=O)CCSSC[C@@H](C(N)=O)NC(=O)[C@@H]2CCCN2C(=O)[C@H](Cc2c[nH]c3ccccc23)NC(=O)[C@H](CC(=O)O)NC(=O)CNC1=O [eptifibatide] ([Mpa][hArg]GDWPC-NH2; disulfide 1-7)	negligible contraction	reduction	did not change	markedly reduce	to a greater extent than Hirudin	remained open	0	–	–	–	–	–
Hirudin	–	–	–	–	–	–	–	drastically reduce	no statistically significant changes	no statistically significant changes	intravascular end of the injury channel remained open, but platelet aggregates blocked the extravascular opening	inhibits
